# Measurements published in ChEMBL document CHEMBL1201862, “PubChem BioAssay data set” (2004).
# The source made the active and inactive calls. Cut-off read from the data, not from the text of the source, for most assays here: actives have a measured IC50 and inactives only a lower limit.
# Tests used:
# [1] = biological target: Induced myeloid leukemia cell differentiation protein Mcl-1 (Homo sapiens, UniProt Q07820); type: functional
# Bcl-2-like protein 10 = Bcl-2-like protein 10 (Homo sapiens, UniProt Q9HD36); assay: Bcl-B/TR3 peptide binding disruption – biochemical, fluorescence polarization, FITC-TR3 peptide, selectivity assay for Bfl-1 inhibitor project, primary screen (AID 748);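 note: fluorescence polarization from a fluorescein-labelled TR3 peptide binding purified Bcl-B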
# Bcl-2-like protein 10, sequence (Q9HD36 whole entry, the tested form may be a part): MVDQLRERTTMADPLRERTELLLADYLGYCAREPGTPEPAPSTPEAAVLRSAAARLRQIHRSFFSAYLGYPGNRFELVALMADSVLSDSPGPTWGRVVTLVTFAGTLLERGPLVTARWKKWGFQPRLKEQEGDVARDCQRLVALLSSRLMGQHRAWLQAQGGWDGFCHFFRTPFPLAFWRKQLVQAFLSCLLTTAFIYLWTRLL
# [2] = biological target: T1, Hepatocyte nuclear factor 4-alpha (Homo sapiens, UniProt P41235); type: functional, cell-based;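 note: biochemical luminescence-based dose-response counterscreen measuring inhibition of HNF4 dimerization, run alongside a screen for blockers of ABHD5–perilipin-5 interaction; split luciferase complementation of HNF4 fusion proteins in cell lysate measuring dimerization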
# T1 sequence (P41235 whole entry): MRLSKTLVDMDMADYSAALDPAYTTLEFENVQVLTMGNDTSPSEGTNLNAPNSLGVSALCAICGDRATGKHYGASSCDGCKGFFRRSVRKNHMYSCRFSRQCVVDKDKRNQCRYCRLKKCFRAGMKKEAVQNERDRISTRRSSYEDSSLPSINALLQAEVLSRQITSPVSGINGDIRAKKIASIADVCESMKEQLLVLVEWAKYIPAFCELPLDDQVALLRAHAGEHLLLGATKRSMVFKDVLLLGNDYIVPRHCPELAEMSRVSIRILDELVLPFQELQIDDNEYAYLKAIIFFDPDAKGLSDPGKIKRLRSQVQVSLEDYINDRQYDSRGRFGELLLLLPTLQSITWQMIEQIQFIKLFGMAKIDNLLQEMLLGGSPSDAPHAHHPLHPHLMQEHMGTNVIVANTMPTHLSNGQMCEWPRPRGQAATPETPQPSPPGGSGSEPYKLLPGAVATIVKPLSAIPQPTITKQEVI
# [3] = biological target: T2, Tyrosine-protein phosphatase non-receptor type 22 (Homo sapiens, UniProt Q9Y2R2); assay: inhibition of lymphoid tyrosine phosphatase LYP – biochemical, pCAP fluorogenic substrate, fluorescence, set 3, SAR follow-up (AID 449727); type: functional
# T2 sequence (Q9Y2R2 whole entry): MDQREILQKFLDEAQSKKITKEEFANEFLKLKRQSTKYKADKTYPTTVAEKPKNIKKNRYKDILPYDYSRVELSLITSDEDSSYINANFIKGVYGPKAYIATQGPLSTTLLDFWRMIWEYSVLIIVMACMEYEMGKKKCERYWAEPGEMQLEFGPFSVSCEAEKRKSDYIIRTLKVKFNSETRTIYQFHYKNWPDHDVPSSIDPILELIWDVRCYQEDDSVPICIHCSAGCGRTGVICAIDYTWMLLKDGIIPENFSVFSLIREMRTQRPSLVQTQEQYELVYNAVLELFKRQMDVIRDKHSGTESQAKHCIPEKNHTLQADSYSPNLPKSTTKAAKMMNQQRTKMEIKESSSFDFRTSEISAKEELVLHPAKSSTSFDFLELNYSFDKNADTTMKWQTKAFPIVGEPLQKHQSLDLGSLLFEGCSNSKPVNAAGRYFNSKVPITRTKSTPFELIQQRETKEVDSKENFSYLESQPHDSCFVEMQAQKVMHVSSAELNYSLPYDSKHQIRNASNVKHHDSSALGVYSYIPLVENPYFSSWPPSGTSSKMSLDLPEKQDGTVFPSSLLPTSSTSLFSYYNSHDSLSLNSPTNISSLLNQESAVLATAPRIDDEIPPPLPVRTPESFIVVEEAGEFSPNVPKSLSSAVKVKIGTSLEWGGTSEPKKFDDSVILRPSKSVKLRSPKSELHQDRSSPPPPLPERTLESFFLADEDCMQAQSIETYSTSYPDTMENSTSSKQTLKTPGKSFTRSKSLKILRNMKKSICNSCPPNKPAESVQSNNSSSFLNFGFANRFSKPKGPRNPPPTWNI
# [4] = biological target: Glyceraldehyde-3-phosphate dehydrogenase (Homo sapiens, UniProt P04406)
# Glyceraldehyde-3-phosphate dehydrogenase, sequence (P04406 whole entry): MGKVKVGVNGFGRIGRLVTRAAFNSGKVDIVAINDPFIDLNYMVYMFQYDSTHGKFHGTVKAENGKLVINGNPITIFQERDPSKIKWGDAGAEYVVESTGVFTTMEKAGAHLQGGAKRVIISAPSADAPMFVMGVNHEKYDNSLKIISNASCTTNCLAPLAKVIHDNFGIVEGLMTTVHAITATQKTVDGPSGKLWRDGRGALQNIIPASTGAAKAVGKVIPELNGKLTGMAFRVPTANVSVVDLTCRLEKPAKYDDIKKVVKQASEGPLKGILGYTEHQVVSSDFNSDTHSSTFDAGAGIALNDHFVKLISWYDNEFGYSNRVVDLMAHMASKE
# [5] = biological target: Tyrosine-protein phosphatase non-receptor type 12 (Homo sapiens, UniProt Q05209); assay: SAR Selectivity Analysis of small molecule inhibitors of PEST using pCAP in a fluorescence assay. [Related pubchem assays (depositor defined):AID1779, AID1784, AID2135]; type: functional
# Tyrosine-protein phosphatase non-receptor type 12, sequence (Q05209 whole entry): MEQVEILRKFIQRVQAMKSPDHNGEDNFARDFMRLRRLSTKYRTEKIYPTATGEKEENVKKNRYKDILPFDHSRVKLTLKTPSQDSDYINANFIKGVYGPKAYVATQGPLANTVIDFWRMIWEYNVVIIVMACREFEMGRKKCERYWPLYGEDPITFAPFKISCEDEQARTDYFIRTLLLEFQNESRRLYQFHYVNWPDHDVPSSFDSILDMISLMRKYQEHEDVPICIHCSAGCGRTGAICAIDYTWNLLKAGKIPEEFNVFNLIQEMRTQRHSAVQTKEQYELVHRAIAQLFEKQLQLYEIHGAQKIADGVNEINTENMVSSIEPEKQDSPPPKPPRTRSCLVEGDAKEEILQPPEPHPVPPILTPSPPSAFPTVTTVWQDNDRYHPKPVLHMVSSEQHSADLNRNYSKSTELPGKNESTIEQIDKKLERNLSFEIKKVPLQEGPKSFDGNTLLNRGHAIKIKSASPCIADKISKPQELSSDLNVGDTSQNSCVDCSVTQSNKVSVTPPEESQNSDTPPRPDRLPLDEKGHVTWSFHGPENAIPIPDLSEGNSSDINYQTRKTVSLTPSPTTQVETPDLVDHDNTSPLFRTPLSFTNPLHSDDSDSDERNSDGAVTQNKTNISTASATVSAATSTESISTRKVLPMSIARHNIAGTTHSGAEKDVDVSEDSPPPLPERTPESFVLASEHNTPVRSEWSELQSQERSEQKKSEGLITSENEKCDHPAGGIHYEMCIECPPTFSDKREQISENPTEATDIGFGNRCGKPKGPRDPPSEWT
# [6] = biological target: T2, Tyrosine-protein phosphatase non-receptor type 22; assay: SAR LYP1 Fluorescent Assay using OMFP substrate for In Vitro dose response studies - Set 3. [Related pubchem assays (depositor defined):AID1779, AID1784, AID2140, AID2686]; type: functional
# [7] = biological target: DNA (cytosine-5)-methyltransferase 1 (Homo sapiens, UniProt P26358); assay: inhibition of DNA methylation by DNMT1 – biochemical, fluorescent molecular beacon, confirmation (AID 602386); type: functional
# DNA (cytosine-5)-methyltransferase 1, sequence (P26358 whole entry): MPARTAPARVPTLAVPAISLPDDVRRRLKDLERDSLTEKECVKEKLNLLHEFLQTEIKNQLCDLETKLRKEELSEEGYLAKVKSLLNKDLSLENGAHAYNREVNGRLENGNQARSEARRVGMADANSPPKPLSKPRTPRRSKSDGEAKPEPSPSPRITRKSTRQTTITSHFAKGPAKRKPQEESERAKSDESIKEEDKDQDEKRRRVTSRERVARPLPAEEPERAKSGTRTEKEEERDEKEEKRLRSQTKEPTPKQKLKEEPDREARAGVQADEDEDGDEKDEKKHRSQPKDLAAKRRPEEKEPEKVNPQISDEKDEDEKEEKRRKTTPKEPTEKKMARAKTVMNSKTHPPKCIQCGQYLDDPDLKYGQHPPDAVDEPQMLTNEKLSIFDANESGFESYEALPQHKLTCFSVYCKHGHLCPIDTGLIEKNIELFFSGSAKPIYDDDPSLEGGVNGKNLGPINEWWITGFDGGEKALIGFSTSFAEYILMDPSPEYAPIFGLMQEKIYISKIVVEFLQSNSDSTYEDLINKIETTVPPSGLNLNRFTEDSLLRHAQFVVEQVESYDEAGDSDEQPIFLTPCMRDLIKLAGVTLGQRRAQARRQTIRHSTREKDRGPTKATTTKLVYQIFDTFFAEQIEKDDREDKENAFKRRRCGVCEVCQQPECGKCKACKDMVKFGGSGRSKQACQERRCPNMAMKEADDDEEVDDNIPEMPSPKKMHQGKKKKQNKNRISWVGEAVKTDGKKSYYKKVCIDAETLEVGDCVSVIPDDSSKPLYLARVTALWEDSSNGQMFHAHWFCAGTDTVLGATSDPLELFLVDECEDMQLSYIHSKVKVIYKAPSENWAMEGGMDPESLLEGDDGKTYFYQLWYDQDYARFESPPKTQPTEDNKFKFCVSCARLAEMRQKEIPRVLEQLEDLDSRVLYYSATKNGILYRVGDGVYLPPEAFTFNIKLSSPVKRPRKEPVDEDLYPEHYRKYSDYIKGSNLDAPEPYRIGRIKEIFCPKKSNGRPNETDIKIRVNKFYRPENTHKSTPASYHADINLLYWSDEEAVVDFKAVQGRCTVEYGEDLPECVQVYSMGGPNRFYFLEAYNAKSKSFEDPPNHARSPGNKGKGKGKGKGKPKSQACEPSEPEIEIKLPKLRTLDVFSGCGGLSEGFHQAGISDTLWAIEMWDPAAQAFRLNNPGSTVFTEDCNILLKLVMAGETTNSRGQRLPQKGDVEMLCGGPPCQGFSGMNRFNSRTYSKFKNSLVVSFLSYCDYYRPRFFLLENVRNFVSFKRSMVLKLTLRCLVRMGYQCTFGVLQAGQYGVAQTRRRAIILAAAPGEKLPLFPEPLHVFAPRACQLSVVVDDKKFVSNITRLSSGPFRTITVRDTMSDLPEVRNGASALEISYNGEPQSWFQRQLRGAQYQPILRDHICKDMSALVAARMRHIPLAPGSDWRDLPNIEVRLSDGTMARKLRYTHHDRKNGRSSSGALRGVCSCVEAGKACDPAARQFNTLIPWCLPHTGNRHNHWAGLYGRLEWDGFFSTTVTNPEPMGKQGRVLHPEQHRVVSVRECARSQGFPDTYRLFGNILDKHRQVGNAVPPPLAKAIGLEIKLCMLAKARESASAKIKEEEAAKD
# [8] = biological target: Heat shock 70 kDa protein 1A (Homo sapiens, UniProt P0DMV8); assay: inhibition of Hsp70 binding activity – biochemical, fluorescence polarization, SAR follow-up (AID 1072)
# Caspase-6 = biological target: T3, Caspase-6 (Homo sapiens, UniProt P55212); assay: inhibition of CASP6 peptide cleavage – biochemical, VEID-R110 fluorescence, cherry-pick, dose response (AID 720632)
# T3 sequence (P55212 whole entry): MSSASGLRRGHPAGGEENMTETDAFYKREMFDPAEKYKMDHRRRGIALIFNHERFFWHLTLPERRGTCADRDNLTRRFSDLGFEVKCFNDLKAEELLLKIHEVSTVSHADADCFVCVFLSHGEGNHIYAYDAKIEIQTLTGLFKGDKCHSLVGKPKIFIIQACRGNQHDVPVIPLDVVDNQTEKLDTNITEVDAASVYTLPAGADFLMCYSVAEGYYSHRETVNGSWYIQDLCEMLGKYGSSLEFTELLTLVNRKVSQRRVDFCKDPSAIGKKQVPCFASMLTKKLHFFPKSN
# [9] = biological target: T4, Dual specificity protein phosphatase 6 (Rattus norvegicus, UniProt Q64346)
# T4 sequence (Q64346 whole entry): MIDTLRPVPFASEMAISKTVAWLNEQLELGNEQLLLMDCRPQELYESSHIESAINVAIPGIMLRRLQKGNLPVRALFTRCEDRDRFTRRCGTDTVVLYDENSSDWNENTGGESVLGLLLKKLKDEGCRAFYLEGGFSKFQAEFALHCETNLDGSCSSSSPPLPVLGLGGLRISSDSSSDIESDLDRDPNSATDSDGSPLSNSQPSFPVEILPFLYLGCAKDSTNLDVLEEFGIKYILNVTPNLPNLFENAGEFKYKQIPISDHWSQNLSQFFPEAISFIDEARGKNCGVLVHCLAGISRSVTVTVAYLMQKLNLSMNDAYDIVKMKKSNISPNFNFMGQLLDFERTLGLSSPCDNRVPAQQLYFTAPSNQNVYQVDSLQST
# Caspase-7 = Caspase-7 (Homo sapiens, UniProt P55210); assay: caspase-7 enzyme inhibition, selectivity check – biochemical, DEVD-R110 fluorescence, cherry-pick, selectivity assay for caspase-6 inhibitor project, dose response (AID 743295); type: functional
# [10] = biological target: Heat shock cognate 71 kDa protein (Homo sapiens, UniProt P11142); assay: In Vitro Hsc70 Dose Response Fluorescence Polarization Assay. [Related pubchem assays: 1072 ]
# Heat shock cognate 71 kDa protein, sequence (P11142 whole entry): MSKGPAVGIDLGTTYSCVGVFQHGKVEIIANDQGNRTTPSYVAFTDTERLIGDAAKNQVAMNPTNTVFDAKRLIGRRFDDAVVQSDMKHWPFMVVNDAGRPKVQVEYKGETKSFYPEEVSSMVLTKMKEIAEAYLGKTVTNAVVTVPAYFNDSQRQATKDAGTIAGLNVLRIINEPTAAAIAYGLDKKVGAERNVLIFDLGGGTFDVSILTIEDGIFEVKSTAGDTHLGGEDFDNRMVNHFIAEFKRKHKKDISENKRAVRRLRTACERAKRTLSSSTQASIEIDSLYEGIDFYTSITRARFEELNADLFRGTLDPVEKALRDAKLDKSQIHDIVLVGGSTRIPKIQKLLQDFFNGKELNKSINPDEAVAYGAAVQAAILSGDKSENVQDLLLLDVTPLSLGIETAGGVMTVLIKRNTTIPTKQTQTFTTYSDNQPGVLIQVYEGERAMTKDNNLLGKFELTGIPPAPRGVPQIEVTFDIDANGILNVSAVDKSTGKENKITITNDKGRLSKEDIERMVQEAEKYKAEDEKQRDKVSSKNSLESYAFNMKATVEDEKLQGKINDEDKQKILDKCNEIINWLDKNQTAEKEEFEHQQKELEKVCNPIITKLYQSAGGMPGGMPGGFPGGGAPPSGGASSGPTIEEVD
# [11] = biological target: T4, Dual specificity protein phosphatase 6; type: functional
# Caspase-8 = Caspase-8 (Homo sapiens, UniProt Q14790); assay: inhibitors of purified CASP8 protease – biochemical, Z-IETD-R110 fluorescence, cherry-picked samples, selectivity assay for caspase-6 inhibitor project, dose response (AID 743294)
# Caspase-8, sequence (Q14790 217-374 limits assumed): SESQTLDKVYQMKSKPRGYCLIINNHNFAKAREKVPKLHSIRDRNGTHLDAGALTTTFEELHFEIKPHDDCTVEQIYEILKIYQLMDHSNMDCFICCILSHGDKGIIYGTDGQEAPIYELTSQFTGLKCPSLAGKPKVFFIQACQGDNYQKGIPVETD
# Caspase-8, sequence (Q14790 385-479 limits assumed): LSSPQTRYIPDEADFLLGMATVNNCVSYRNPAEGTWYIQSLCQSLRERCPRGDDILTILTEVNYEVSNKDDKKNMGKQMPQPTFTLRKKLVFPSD
# [12] = biological target: T5, Tyrosine-protein phosphatase non-receptor type 7 (Homo sapiens, UniProt P35236); type: functional
# T5 sequence (P35236 whole entry): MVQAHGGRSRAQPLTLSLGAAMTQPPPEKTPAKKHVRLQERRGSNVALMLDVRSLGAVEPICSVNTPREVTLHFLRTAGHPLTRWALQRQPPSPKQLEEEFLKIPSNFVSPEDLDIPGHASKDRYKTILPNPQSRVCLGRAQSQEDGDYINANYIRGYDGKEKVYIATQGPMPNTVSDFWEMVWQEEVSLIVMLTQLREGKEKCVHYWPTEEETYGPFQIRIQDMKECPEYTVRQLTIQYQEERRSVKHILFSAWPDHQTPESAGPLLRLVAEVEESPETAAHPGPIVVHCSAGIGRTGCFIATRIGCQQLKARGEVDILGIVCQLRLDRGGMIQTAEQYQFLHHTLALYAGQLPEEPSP
# [13] = biological target: T6, Neuropeptide Y receptor type 2 (Homo sapiens, UniProt P49146); assay: Fluorescence-based cell-based high-throughput dose response assay for agonists of NPY-Y2. [Related pubchem assays: 1703 (Screening assay (CNGC inhibitors).), 1359 (Screening assay (NPY-Y2 potentiators or agonists).), 1304 (Screening assay (NPY-Y1 potentiators or agonists).), 1710 (Screening assay (NPY-Y2 agonists).), 1791 (Summary AID.)]; type: functional
# T6 sequence (P49146 whole entry): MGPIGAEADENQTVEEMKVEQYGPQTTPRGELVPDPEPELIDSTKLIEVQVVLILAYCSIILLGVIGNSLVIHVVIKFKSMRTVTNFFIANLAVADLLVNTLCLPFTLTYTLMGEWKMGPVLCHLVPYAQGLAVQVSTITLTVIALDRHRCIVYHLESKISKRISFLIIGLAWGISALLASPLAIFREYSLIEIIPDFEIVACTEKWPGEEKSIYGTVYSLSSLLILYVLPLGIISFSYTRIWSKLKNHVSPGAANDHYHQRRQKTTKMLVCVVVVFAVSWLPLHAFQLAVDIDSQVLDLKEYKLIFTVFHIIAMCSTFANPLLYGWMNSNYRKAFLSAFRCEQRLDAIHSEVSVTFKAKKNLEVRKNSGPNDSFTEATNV
# [14] = biological target: T7, Neuropeptide Y receptor type 1 (Homo sapiens, UniProt P25929); assay: Fluorescence-based counterscreen for agonists of NPY-Y2: cell-based high-throughput dose response assay for agonists of NPY-Y1.; type: functional
# T7 sequence (P25929 whole entry): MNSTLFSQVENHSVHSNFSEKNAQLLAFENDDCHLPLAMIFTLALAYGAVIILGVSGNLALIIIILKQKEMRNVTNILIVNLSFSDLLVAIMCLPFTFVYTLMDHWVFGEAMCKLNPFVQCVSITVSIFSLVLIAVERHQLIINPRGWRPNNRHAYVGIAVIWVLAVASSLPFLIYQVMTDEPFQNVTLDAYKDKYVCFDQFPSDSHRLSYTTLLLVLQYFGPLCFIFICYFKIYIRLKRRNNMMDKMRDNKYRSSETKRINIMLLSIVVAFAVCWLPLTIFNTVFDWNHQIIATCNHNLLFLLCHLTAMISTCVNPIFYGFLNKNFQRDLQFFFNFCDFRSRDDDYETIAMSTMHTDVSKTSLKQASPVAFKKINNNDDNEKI
# HEK293 = assay: Fluorescence-based counterscreen for potentiators or agonists of NPY-Y2: cell-based high-throughput dose response assay to identify inhibitors of cyclic nucleotide gated ion channel (CNGC) activity. In this assay, the parental HEK293 cell line transfected with a cyclic-nucleotide gated ion channel (CNGC)-based cAMP sensor is used to measure inhibition of isoproterenol-induced CNGC activity by test compound.; type: functional; conditions: Homo sapiens;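 note: stimulus is 1 µM isoproterenol at EC100 plus PDE inhibitor Ro 20-1724 at 25 µM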
# Induced myeloid leukemia cell differentiation protein Mcl-1, sequence (Q07820 whole entry): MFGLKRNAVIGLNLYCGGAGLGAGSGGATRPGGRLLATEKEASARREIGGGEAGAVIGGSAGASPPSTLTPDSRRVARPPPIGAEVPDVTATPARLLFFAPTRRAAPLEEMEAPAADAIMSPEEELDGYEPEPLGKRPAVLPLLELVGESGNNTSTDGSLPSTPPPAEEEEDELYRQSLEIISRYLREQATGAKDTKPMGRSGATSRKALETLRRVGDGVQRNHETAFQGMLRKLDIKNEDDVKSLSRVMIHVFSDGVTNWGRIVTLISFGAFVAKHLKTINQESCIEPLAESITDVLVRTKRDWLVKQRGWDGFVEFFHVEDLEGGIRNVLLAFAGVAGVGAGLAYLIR
smiles,measurement,setting,value
Cc1ccc(NC(=O)CSc2nnc(-c3ccco3)c(-c3ccco3)n2)cc1,IC50,[1],3.01 µM (active)
same,IC50,Bcl-2-like protein 10,19 µM (active)
same,IC50,[2],1.6 µM (active)
COc1cc(/C=C2\SC(N(C)c3ccc(O)cc3)=NC2=O)ccc1OCC(=O)O,IC50,[3],> 100 µM (inactive)
same,IC50,[4],> 100 µM (not active)
same,IC50,[5],> 100 µM (inactive)
same,IC50,[6],> 100 µM (inactive)
O=C(O)C1Nc2c(Cl)cc(Cl)c(Cl)c2C2C=CCC12 (stereo not given),IC50,[4],> 100 µM (not active)
same,IC50,[7],4.36 µM (active)
same,IC50,[8],> 100 µM (not active)
same,AC50,Caspase-6,2 µM (active)
same,IC50,[9],14.2 µM (active)
same,AC50,Caspase-7,34.1 µM (active)
same,IC50,[10],> 100 µM (not active)
same,IC50,[11],12 µM (active)
same,AC50,Caspase-8,> 70 µM (inactive)
same,IC50,[12],9.63 µM (active)
Cc1c([N+](=O)[O-])c(C(=O)Sc2ccc(Br)cc2)nn1C,EC50,[13],> 35.4 µM (not active)
same,EC50,[14],> 35.4 µM (not active)
same,EC50,HEK293,> 11.8 µM (not active)
